Common to all, as to type: cell-based
Assay [1] deals with susceptible strains. As to the kind of experiment: in vitro antibacterial evaluation, susceptible strains. The settings on record: vs minocycline.
For assay [2], the system named is tetracycline resistant strains containing the tetM resistance determinant. Briefly: in vitro antibacterial evaluation, tetM strains. As to conditions: S. aureus UBMS 88-5, 90-1 and 90-2, E. coli UBMS 89-1 and 90-4.
In assay [3] the test system is Ps. acruginosa ATCC 27853. Briefly: MIC, agar dilution method. (Agar dilution tests growth on a series of plates holding different concentrations.)
In assay [4] the test system is S. aureus ATCC 29213. As to the kind of experiment: MIC, agar dilution method. As to conditions: Staphylococcus aureus, ATCC29213, 18 h, 18 hours at 35° C.
For assay [5], the system named is E. coli UBMS 89-1 Tet M. As to the kind of experiment: microbe, parasite or virus in culture. As to conditions: Escherichia coli, UBMS891TETM, 18 h, 18 hours at 35° C.
The test system of assay [6] is E. coli MC 4100 Tet sens. Briefly: MIC, agar dilution method. The settings on record: Escherichia coli, 18 hours at 35° C., read-out: MIC.
Assay [7] has as its system E. coli UBMS 90-5 sens. As to the kind of experiment: MIC, agar dilution method. The settings on record: Escherichia coli, UBMS905SENS, 18 hours at 35° C., read-out: MIC.
The subject of assay [8] is S. aureus UBMS 88-4. As to the kind of experiment: MIC, agar dilution method. The settings on record: Staphylococcus aureus, UBMS884, 18 hours at 35° C., read-out: MIC.
Assay [9] has as its system E. coli UBMS 90-4 Tet M. Briefly: microbe, parasite or virus in culture. As to conditions: Escherichia coli, UBMS904TETM, 18 h, 18 hours at 35° C.
Assay [10] deals with E. coli ATCC 25922. Briefly: MIC, agar dilution method. As to conditions: Escherichia coli, ATCC25922, 18 hours at 35° C., read-out: MIC.
Assay [11] has as its system E. coli J2175. Briefly: MIC, agar dilution method. The settings on record: Escherichia coli, 18 hours at 35° C., read-out: MIC.
In assay [12] the test system is E. coli MC 4100 TNIOC Tet B. As to the kind of experiment: microbe, parasite or virus in culture. As to conditions: Escherichia coli, 18 h, 18 hours at 35° C.
The test system of assay [13] is S. mariescens FPOR 8733. As to the kind of experiment: MIC, agar dilution method. As to conditions: 18 h, 18 hours at 35° C.
In assay [14] the test system is E. coli #311 (MP). As to the kind of experiment: MIC, agar dilution method. As to conditions: Escherichia coli, 18 hours at 35° C., read-out: MIC.
For assay [15], the system named is S. aureus SMITH (MP). Briefly: MIC, agar dilution method. As to conditions: Staphylococcus aureus, 18 hours at 35° C., read-out: MIC.
In assay [16] the test system is S. hemolyticus AVHAH 88-3. As to the kind of experiment: MIC, agar dilution method. As to conditions: Streptococcus pyogenes, AVHAH883, 18 h, 18 hours at 35° C.
The test system of assay [17] is E. coli J3272 Tet C. Briefly: microbe, parasite or virus in culture. The settings on record: Escherichia coli, J3272TETC, 18 h.
Assay [18] relates to E. coli PRP1 Tet A. Briefly: microbe, parasite or virus in culture. The settings on record: Escherichia coli, PRP1TETA, 18 h, 18 hours at 35° C.
The test system of assay [19] is S. aureus UBMS 88-5 Tet M. Briefly: microbe, parasite or virus in culture. As to conditions: Staphylococcus aureus, UBMS885TETM, 18 h.
Assay [20] concerns S. aureus ROSE (MP). Briefly: MIC, agar dilution method. As to conditions: Staphylococcus aureus, 18 hours at 35° C.
Assay [21] concerns E. coli UBMS 88-1 Tet B. Briefly: microbe, parasite or virus in culture. As to conditions: Escherichia coli, UBMS881TETB, 18 h, 18 hours at 35° C.
Assay [22] deals with E. coli J3272 Tet D. Briefly: microbe, parasite or virus in culture. The settings on record: Escherichia coli, J3272TETD, 18 h.
Assay [23] deals with X. maltophilia NEMC 87210. Briefly: MIC, agar dilution method. As to conditions: Stenotrophomonas maltophilia, NEMC87210, 18 h, 18 hours at 35° C.
Assay [24] relates to Enterococcus 12201. As to the kind of experiment: MIC, agar dilution method. The settings on record: Enterococcus, 12201, 18 h, 18 hours at 35° C.
The test system of assay [25] is E. coli BAJ9003 IMP MUT. As to the kind of experiment: microbe, parasite or virus in culture. As to conditions: Escherichia coli, BAJ9003IMPMUT, 18 h, 18 hours at 35° C.
Assay [26] concerns S. aureus IVES 2943. Briefly: MIC, agar dilution method. The settings on record: Staphylococcus aureus.
Assay [27] concerns E. coli UBMS 89-2 Tet sens. As to the kind of experiment: MIC, agar dilution method. As to conditions: Escherichia coli, UBMS892TETSENS, 18 h, 18 hours at 35° C., read-out: MIC.
For assay [28], the system named is S. aureus IVES 1 983. Briefly: MIC, agar dilution method. The settings on record: Staphylococcus aureus.
Assay [29] relates to S. aureus UBMS 88-7 Tet K. Briefly: microbe, parasite or virus in culture. As to conditions: Staphylococcus aureus, UBMS887TETK, 18 h, 18 hours at 35° C.
Assay [30] has as its system S. aureus UBMS 90-2 Tet M. Briefly: microbe, parasite or virus in culture. As to conditions: Staphylococcus aureus, UBMS902TETM, 18 h, 18 hours at 35° C.
For assay [31], the system named is S. aureus NEMC 8769. As to the kind of experiment: MIC, agar dilution method. As to conditions: Staphylococcus aureus, NEMC8769, 18 h.
Assay [32] deals with S. aureus UBMS 90-1 Tet M. As to the kind of experiment: microbe, parasite or virus in culture. As to conditions: Staphylococcus aureus, UBMS901TETM, 18 h, 18 hours at 35° C.
Assay [33] concerns S. aureus UBMS 90-3. Briefly: MIC, agar dilution method. The settings on record: Staphylococcus aureus, UBMS903, 18 h.
For assay [34], the system named is E. faecalis ATCC 29212. Briefly: MIC, agar dilution method. As to conditions: Enterococcus faecalis, ATCC29212, 18 h, 18 hours at 35° C.

Counter-ions that a name gives are not always drawn. Like-named read-outs stand apart in the source and are kept apart here.

Consider `CN(C)CC(=O)Nc1c(Cl)cc2c(c1O)C(=O)C1=C(O)[C@]3(O)C(=O)C(C(N)=O)=C(O)[C@@H](N(C)C)C3CC1C2` (stereo partly drawn) [8-chloro-9-(N,N-dimethylglycylamido)-6-demethyl-6-deoxytetracycline], for which, in [1], the “effectiveness against susceptible strains compared with minocycline” value is listed as “equally as effective as minocycline”. Moreover, the “in vitro activity against tetracycline resistant strains containing the tetM resistance determinant” value in [2] was “good in vitro activity”.

Consider `CCCCCNCC(=O)Nc1c(Cl)cc2c(c1O)C(=O)C1=C(O)[C@]3(O)C(=O)C(C(N)=O)=C(O)[C@@H](N(C)C)C3CC1C2` (stereo partly drawn) [H, [4S-(4α,12aα)]-8-Chloro-4-(dimethylamino)-1,4,4a,5,5a,6,11,12a-octahydro-3, 10,12,12a-tetrahydroxy-1,11-dioxo-9-[[(pentylamino)acetyl]amino]-2-naphthacenecarboxamide dihydrochloride], for which the MIC in assay [3] (Ps. acruginosa ATCC 27853, 18 hours at 35° C., read-out: MIC) is above 32 µg/mL; in assay [4], 0.5 µg/mL; in assay [5], 0.5 µg/mL; in [6] it was 0.25 µg/mL; in assay [7], 2 µg/mL; in assay [8], 0.5 µg/mL. The MIC in assay [9] was 2 µg/mL; in assay [10], 2 µg/mL; in assay [11] it was 2 µg/mL; in assay [12], 2 µg/mL; in assay [13] it was 16 µg/mL; in assay [14] it was 2 µg/mL. Also, the MIC in assay [15] stood at 0.5 µg/mL; in assay [16] it was 4 µg/mL; in [17], 2 µg/mL; in assay [18] it was 2 µg/mL; in [19], 1 µg/mL; in assay [20] (18 h), 8 µg/mL. Also, the MIC in assay [21] was determined as 2 µg/mL; in [22], 1 µg/mL; in [23], 4 µg/mL; in [24], 0.25 µg/mL; in assay [25] it was 0.25 µg/mL; in assay [26] (IVES2943, 18 h) it was 8 µg/mL. Also, the MIC in [27] turned out to be 2 µg/mL; in [28] (IVES1983, 18 h), 4 µg/mL; in [29], 4 µg/mL; in assay [30], 0.25 µg/mL; in assay [31] it was 0.5 µg/mL; in assay [32], 2 µg/mL. For the same molecule, the MIC was determined as 0.25 µg/mL in assay [33] and 0.12 µg/mL in assay [34].

With `CNCC(=O)Nc1c(Cl)cc2c(c1O)C(=O)C1=C(O)[C@]3(O)C(=O)C(C(N)=O)=C(O)[C@@H](N(C)C)C3CC1C2` (stereo partly drawn) [I, [4S-(4α,12aα)]-8-Chloro-4-(dimethylamino)-1,4,4a,5,5a,6,11,12a-octahydro-3, 10,12,12a-tetrahydroxy-1,11-dioxo-9-[[(methylamino)acetyl]amino]-2-naphthacenecarboxamide dihydrochloride], the MIC in assay [3] (18 h) came to 16 µg/mL; in [4], 0.5 µg/mL; in assay [5], 2 µg/mL; in assay [6], 0.25 µg/mL; in [7] it was 1 µg/mL; in [8] it was 0.5 µg/mL. Further, the MIC in [9] is 1 µg/mL; in [10], 1 µg/mL; in assay [11], 1 µg/mL; in assay [12], 1 µg/mL; in [13] it was 16 µg/mL; in assay [14] it was 2 µg/mL. The MIC in [15] is 0.5 µg/mL; in [16], 2 µg/mL; in assay [17], 16 µg/mL; in assay [18], 16 µg/mL; in assay [19], 0.5 µg/mL; in assay [20] (read-out: MIC) it was above 32 µg/mL. Besides, the MIC in [21] is 1 µg/mL; in assay [22], 1 µg/mL; in assay [23], 16 µg/mL; in assay [24], 0.5 µg/mL; in [25], 0.25 µg/mL; in assay [26] (IVES2943, S. aureus IVES 2943, 18 hours at 35° C., read-out: MIC), above 32 µg/mL. Also, the MIC was 2 µg/mL in assay [27]; above 32 µg/mL in [28] (IVES1983, S. aureus IVES 1 983, 18 hours at 35° C., read-out: MIC); above 32 µg/mL in assay [29]; 0.5 µg/mL in assay [30]; 0.5 µg/mL in assay [31]; 0.5 µg/mL in assay [32]. Also, the results for the MIC in assay [33] and in [34] were 0.5 µg/mL and 0.25 µg/mL, respectively.

For the origin of these results see patent publication US5495032A, “Process for producing 7-(substituted)-8-(substituted-9-[(substituted glycyl)amido]-6-demethyl-6-deoxytetracyclines” (priority 1994, dated 1996).
